Like-named read-outs stand apart in the source and are kept apart here.
Experiments:
[1] = cited from earlier work; for EN (normalized solvent polarity parameter): water and tetramethylsilane as extreme reference solvents; for ET (solvent polarity parameter): solvatochromic absorption of betaine dye
[2] = cited from earlier work
[3] = Solubility of cobalt ion in the combination solvent; assay type: physicochemical; details: cyclohexanone/water combination solvent
From the text: The above profound and unexpected attributes (considerable increase of dibasic acid solubility combined with considerable decrease of cobalt ion solubility in the novel combination solvent) are primarily responsible for a clean extraction of the cobalt ion with water from the rest of the reaction mixture, which remains dissolved in the combination solvent of the instant invention.

O=C1CCCCC1 [Cyclohexanone]
EN (normalized solvent polarity parameter) [1]: 0.281 | mol % CHxO (solubility of cyclohexanone in water) ([2]; 20 °C): 1.98% mol % | wt % CHxO (solubility of cyclohexanone in water) ([2]; 20 °C): 10.00% wt % | mol % CHxO (solubility of cyclohexanone in water) ([2]; 25 °C): 1.85% mol % | wt % CHxO (solubility of cyclohexanone in water) ([2]; 25 °C): 9.39% wt % | mol % CHxO (solubility of cyclohexanone in water) ([2]; 30 °C): 1.73% mol % | wt % CHxO (solubility of cyclohexanone in water) ([2]; 30 °C): 8.83% wt % | mol % CHxO (solubility of cyclohexanone in water) ([2]; 50 °C): 1.43% mol % | wt % CHxO (solubility of cyclohexanone in water) ([2]; 50 °C): 7.39% wt % | mol % CHxO (solubility of cyclohexanone in water) ([2]; 70 °C): 1.34% mol % | wt % CHxO (solubility of cyclohexanone in water) ([2]; 70 °C): 6.95% wt % | mol % CHxO (solubility of cyclohexanone in water) ([2]; 90 °C): 1.44% mol % | wt % CHxO (solubility of cyclohexanone in water) ([2]; 90 °C): 7.44% wt %

CC(=O)O [Acetic acid]
EN (normalized solvent polarity parameter) [1]: 0.648

c1ccc(Oc2ccccc2)cc1 [diphenyl ether]
ET (solvent polarity parameter) [1]: 35.3 kcal/mol

OC1CCCCC1 [Cyclohexanol]
EN (normalized solvent polarity parameter) [1]: 0.500

cobalt ion
solubility of the cobalt ion in the novel combination solvent [3]: decreases considerably

CCCCCC [n-Hexane]
EN (normalized solvent polarity parameter) [1]: 0.009

CCO [Ethanol]
EN (normalized solvent polarity parameter) [1]: 0.654

CO [Methanol]
EN (normalized solvent polarity parameter) [1]: 0.762

O [Water]
ET (solvent polarity parameter) [1]: 63.1 kcal/mol | EN (normalized solvent polarity parameter) [1]: 1.000

C1CCCCC1 [Cyclohexane]
EN (normalized solvent polarity parameter) [1]: 0.006

From US6433220B1 (RPC Inc., priority 1998, dated 2002)
